Experimental data from PubChem BioAssay (NCI).
Several values for one entry are separate records, joined by “and”; a condition that tells them apart may be missing. Equal entries are not always repeated.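 Cultured in 96-well plates, cells were exposed to test compound for 48 hours across five concentrations. GI50 marks 50% less growth. TGI: total growth inhibition.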

Tests used:
Test in all cases: NCI tumour cell line growth inhibition, 48 h
UACC-62 melanoma = system: UACC-62 melanoma
RPMI-8226 leukemia = system: RPMI-8226 leukemia
MDA-MB-435 = system: MDA-MB-435
HOP-92 NSCLC = system: HOP-92 NSCLC
HCC-2998 colon = system: HCC-2998 colon
A549 NSCLC = system: A549 NSCLC
SF-268 CNS = system: SF-268 CNS
KM12 colon = system: KM12 colon
UACC-257 melanoma = system: UACC-257 melanoma
SR leukemia = system: SR leukemia

Structure (SMILES)	GI50 (UACC-62 melanoma) [µM]	TGI (UACC-62 melanoma)	GI50 (RPMI-8226 leukemia) [µM]	TGI (RPMI-8226 leukemia)	GI50 (MDA-MB-435) [µM]	TGI (MDA-MB-435)	GI50 (HOP-92 NSCLC) [µM]	TGI (HOP-92 NSCLC)	GI50 (HCC-2998 colon) [µM]	TGI (HCC-2998 colon)	GI50 (A549 NSCLC) [µM]	TGI (A549 NSCLC)	GI50 (SF-268 CNS) [µM]	TGI (SF-268 CNS)	GI50 (KM12 colon) [µM]	TGI (KM12 colon)	GI50 (UACC-257 melanoma) [µM]	TGI (UACC-257 melanoma)	GI50 (SR leukemia) [µM]	TGI (SR leukemia)
O=C1NC(=O)N(S(=O)(=O)c2cc(C(=O)Nc3ccc(Cl)cc3)c(Cl)cc2S)S(=O)(=O)N1	6.67	23.6 µM	17.7	55.7 µM	18.5	34.3 µM	12.9	44.3 µM	12.9	30 µM	25.1	55.6 µM	16.9	46.6 µM	18.6	34.8 µM	17.5	37.1 µM		
Oc1c(Br)cc(Cl)cc1C(c1cc(Cl)cc(Br)c1O)C(Cl)(Cl)Cl	1.94	8.99 µM	0.961	6.47 µM	2.94	10.1 µM	0.457	2.48 µM	2.63	8.48 µM	3.13	11.7 µM	3.61	15.2 µM	2.8	9.3 µM	2.33	6.57 µM		
CC1=C(C(=O)Nc2ccc3[nH]ncc3c2)C(c2ccc(F)cc2)N=C(c2ccc(C(F)(F)F)nc2)N1 (centres undefined)	10.1	> 25 µM	20	> 25 µM	4.97	12 µM	0.548	7.6 µM	> 25	> 25 µM	13.4	> 25 µM	10.7	> 25 µM	16.3	> 25 µM	15.7	> 25 µM	6.43	> 25 µM
N=C(N)SCc1ccc(Cl)c2ccccc12 (tested in a mixture with another compound)		26.4 µM and 25.6 µM		18.5 µM and 7.98 µM		21.5 µM and 22.2 µM		32.2 µM and 24.9 µM		6.66 µM and 4.89 µM		31.3 µM and 35.5 µM		33.3 µM and 33.5 µM		28.3 µM and 27.7 µM		13.8 µM and 12.9 µM		22.8 µM and 8.03 µM
COc1ccccc1CNCCCN1C(=O)c2ccc3c4c(ccc(c24)C1=O)C(=O)N(CCCNCc1ccccc1OC)C3=O	0.198	0.407 µM	0.274	0.799 µM	0.179	0.349 µM	0.243	0.847 µM	0.166	0.328 µM	0.2	0.46 µM	0.257	0.834 µM	0.116	0.272 µM	0.184	0.349 µM	0.264	0.928 µM
COc1ccc([C@@H]2[C@@H](Oc3ccccc3)C(=O)N2c2cc(OC)c(OC)c(OC)c2)cc1F	0.0419	> 100 µM	0.207	5.64 µM	0.0264	0.076 µM	0.722	> 100 µM	0.524	> 100 µM	0.209	> 100 µM	0.222	> 100 µM	0.088	> 100 µM			0.0778	> 100 µM
CC(=O)O[C@H]1C[C@@H]2[C@@]3(C)CC[C@H]4C[C@@]4(C)[C@@H]3CC[C@@]2(C)C2=CCC3=C(COC3=O)[C@]21C	16.6	36.4 µM	17.9	50.2 µM	22.6	46.9 µM	16.7	35 µM	23.7	51.4 µM	20.8	44.4 µM	21	46.9 µM	18.7	43.6 µM	34.2	> 100 µM	> 100	> 100 µM
CC[C@]12C=CCN3CC[C@@]4(c5ccc(OC)cc5N(C)[C@H]4[C@@](O)(C(=O)OC)[C@@H]1OC(=O)CCCN1CCN(CCCC(=O)O[C@@H]4[C@]5(CC)C=CCN6CC[C@@]7(c8ccc(OC)cc8N(C)[C@H]7[C@@]4(O)C(=O)OC)[C@@H]65)CC1)[C@@H]32	1.68	3.13 µM	0.547	2.26 µM	1.25	2.63 µM			1.66	3.26 µM	1.31	2.95 µM	0.919	2.38 µM	0.985	2.31 µM	1.96	3.69 µM	0.252	0.738 µM
ON1CCc2c([nH]c3ccccc23)C1c1ccc(Cl)cc1 (centres undefined)		> 100 µM		84.3 µM				41.1 µM		72.3 µM		> 100 µM		> 100 µM		92.9 µM		> 100 µM		> 100 µM
O=C(O)CSc1cc(NS(=O)(=O)c2ccc(Br)cc2)c2ccccc2c1O	7.81	23.4 µM	5.33	29.9 µM	1.88	3.41 µM	13.5	31.6 µM	18.4	33.9 µM	22.8	42.6 µM	8.18	23.4 µM	11.6	25.7 µM	4.95	12.1 µM	17.8	> 68.1 µM
O=C(CCN1CCOCC1)Nc1ccc(Cn2nnc3c2C(=O)c2nnn(Cc4ccc(NC(=O)CCN5CCOCC5)cc4)c2C3=O)cc1	1.53	3.14 µM	1.43	> 21.1 µM	0.324	0.799 µM	2.36	4.64 µM	2.62	6.68 µM	> 100	> 100 µM	1.28	> 100 µM			1.64	3.57 µM	1.68	7.62 µM
CCOC(=O)C1C(NC(N)=O)N(Cc2ccccc2)C(=O)N1Cc1ccccc1 (centres undefined)		> 100 µM		> 100 µM				> 100 µM		> 100 µM		> 100 µM		> 100 µM		> 100 µM		> 100 µM		> 100 µM
CCCCCNC(=O)CCCCCCCCCCCNC(=O)CCCCCCCCCCN1C=CC(=CC=C2C=CC(=O)C=C2)C=C1		> 100 µM		> 100 µM				55.1 µM		> 100 µM		> 100 µM		> 100 µM		> 100 µM		88.7 µM		> 100 µM
COc1cc2c(cc1C)NC(=O)/C2=C\c1ccc(Oc2ccccc2)cc1	11.9	26 µM	12.1	31.6 µM	17.8	38.1 µM	2.03	9.19 µM	16.3	29.9 µM	14.7	33.4 µM			13.6	30.4 µM	17.7	34 µM	0.0697	2.1 µM
C#CCCCCCC(=O)N[C@H]1C=C[C@@H]2/C=C(C)/C=C/[C@@H](C)[C@H]([C@H](C)[C@H](O)[C@@H](C)NC(C)=O)OC(=O)/C=C/C=C(C)\C=C\[C@]2(C)C1	0.023	9.04 µM	< 0.004	4.61 µM			< 0.004	0.0159 µM	6.16	> 40 µM	< 0.004	> 40 µM	0.397	> 40 µM	0.00501	> 40 µM	< 0.004	0.0324 µM	< 0.004	9.53 µM
COc1cc2c(cc1OCCN1CCN(CCN3C(=O)c4cccc5cccc(c45)C3=O)CC1)N=C[C@@H]1CCCN1C2=O	18.2	35 µM	17.1	34.8 µM	23.4	48.7 µM					18.7	47.3 µM	15.8	33 µM	18.2	39 µM	21.1	48.3 µM	19.7	41.8 µM

Structure (SMILES)	GI50 (UACC-62 melanoma) [µM]	TGI (UACC-62 melanoma)	GI50 (RPMI-8226 leukemia) [µM]	TGI (RPMI-8226 leukemia)	GI50 (MDA-MB-435) [µM]	TGI (MDA-MB-435)	GI50 (HOP-92 NSCLC) [µM]	TGI (HOP-92 NSCLC)	GI50 (HCC-2998 colon) [µM]	TGI (HCC-2998 colon)	GI50 (A549 NSCLC) [µM]	TGI (A549 NSCLC)	GI50 (SF-268 CNS) [µM]	TGI (SF-268 CNS)	GI50 (KM12 colon) [µM]	TGI (KM12 colon)	GI50 (UACC-257 melanoma) [µM]	TGI (UACC-257 melanoma)	GI50 (SR leukemia) [µM]	TGI (SR leukemia)
COc1ccc2cc3n(c(=O)c2c1)CCc1c-3cc(OC)c(OC)c1OC		> 100 µM		> 100 µM				> 100 µM		> 100 µM		> 100 µM		> 100 µM				> 100 µM		> 100 µM
COC(=O)N/N=C(\C)c1sc(-c2nc(C)c(/C(C)=N/NC(=O)OC)s2)nc1C		> 100 µM		> 100 µM				> 100 µM		> 100 µM		> 100 µM		> 100 µM		> 100 µM		> 100 µM		45.7 µM
COc1ccc(C(C)Nc2cc(OC)c(OC)c(OC)c2)cc1 (centres undefined)		> 100 µM		> 100 µM				> 100 µM		> 72.2 µM		> 100 µM		9.59 µM		> 100 µM		> 100 µM		> 100 µM
CCN1CCN(CC(=O)Nc2nc3ccc(NCc4ccc(Br)cc4)cc3s2)CC1	1.9	3.52 µM	1.54	4.07 µM	1.69	3.23 µM	1.21	3.04 µM							3.25	> 100 µM	2.28	5.14 µM	2.42	> 100 µM
CNS(=O)(=O)NNS(=O)(=O)c1ccc(C)cc1		> 100 µM		> 100 µM				> 100 µM		> 100 µM		> 100 µM		> 100 µM		> 100 µM		> 100 µM		> 100 µM
CC1(C)CC2=NO[Se]3=C2C(=NO3)C1		6.63 µM		18.5 µM		15.5 µM		8.21 µM		16.8 µM		14.2 µM		56.3 µM		13.8 µM		5.64 µM		
Cc1cccc(Oc2ccc(Nc3ncnc4ccc(NC(=O)CN(C)C)cc34)cc2Cl)c1	1.71	3.38 µM			1.67	3.14 µM	1.4	3.99 µM	1.6	3.19 µM	1.91	10.1 µM	1.47	3.1 µM	2	4.09 µM	1.71	3.3 µM		
c1cc(OCCCCCOc2cccc(-c3nc4ccccc4[nH]3)c2)cc(-c2nc3ccccc3[nH]2)c1	2.83	> 100 µM			2.26	6.74 µM	1.09	4.68 µM	3.32	28 µM			5.12	> 100 µM	2.69	> 100 µM	2.87	7.85 µM		
CC(C)CCCC(C)C1CCC2C3CC([N+](=O)[O-])=C4CC(O)CCC4(C)C3CCC12C (centres undefined)		40.3 µM		46.9 µM				46.6 µM		37.2 µM		47.1 µM		62.9 µM		37 µM		37.5 µM		34.1 µM
O=c1c2cc(Br)ccc2nc(CNc2ccccc2)n1-c1ccccc1		23.5 µM		> 54.9 µM				37.8 µM		33.7 µM		> 62.7 µM		> 54.7 µM		> 100 µM		98 µM		> 30.4 µM
O=[N+]([O-])c1ccc(/C=C(/c2ccc([N+](=O)[O-])o2)S(=O)(=O)c2ccccc2)cc1		75.7 µM		31.4 µM		> 100 µM		> 100 µM				> 100 µM		> 100 µM		> 100 µM		> 100 µM		36.5 µM
O=S(=O)(O)C(c1ccccc1)C(O)c1ccccc1 (centres undefined)		> 100 µM		> 100 µM		> 100 µM		> 100 µM				> 100 µM		> 100 µM		> 100 µM		> 100 µM		> 100 µM
O=C(NO)c1ccc(CNc2cccc3nc(C4CC4)n(-c4ccccc4)c(=O)c23)cc1	1.96	4.66 µM	2.69	11.3 µM	1.86	3.91 µM	1.99	6.82 µM	1.81	3.44 µM	2.23	5.74 µM					1.82	4.76 µM	0.877	> 100 µM
CN(C)c1ccc(/C=C2\CCc3ccccc3C2=O)cc1Br		> 100 µM		72.9 µM				> 100 µM		> 100 µM		> 100 µM		> 100 µM		> 100 µM		> 100 µM		> 100 µM
CN(C)CCCC1(c2ccc(F)cc2)OCc2cc(-c3csc4ccccc34)ccc21 (centres undefined)	1.69	3.13 µM			1.73	3.19 µM	1.4	2.95 µM	1.65	3.14 µM	1.82	3.66 µM	1.64	3.19 µM	1.71	3.16 µM	1.78	3.49 µM		
